The values below come from patent US7728012B2, “Carboxamide compounds and their use as calpain inhibitors” (Abbott GmbH & Co. KG, priority 2006, dated 2010).

Structures are written as SMILES.

Holding throughout (format): biochemical
Assay [1] addresses T1, cathepsin B isolated from human liver (Homo sapiens, UniProt P07858).
T1 construct: cathepsin B—isolated from human liver; purchased Calbiochem 219362; host or cells: human liver (tissue isolate)
Description: Cathepsin B kinetic fluorescence enzyme inhibition assay. To be noted: selectivity ratio versus calpain I. In a few lines:
(§1)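 cat B 0.25 nM + Z-Phe-Arg-AMC 100 μM; cat L 1 nM + Z-Phe-Arg-AMC 2 μM; cat S 0.5 nM (E. coli-expressed) + Z-Val-Val-Arg-AMC 20 μM. 50 mM MES pH 6.0, 2.5 mM L-Cys, RT. Ex 390/em 460, kinetic; Ki app = Cheng-Prusoff from IC50, mean of 2–4 curves.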

Assay [2] deals with T2, cathepsin L isolated from human liver (Homo sapiens, UniProt P07711).
T2 construct: cathepsin L—isolated from human liver; purchased Calbiochem 219402; host or cells: human liver (tissue isolate)
The experiment in a line: Cathepsin L kinetic fluorescence enzyme inhibition assay. To be noted: selectivity ratio versus calpain I. A digest of the protocol:
as §1

Assay [3] concerns the target T3, recombinant human cathepsin S (Homo sapiens, UniProt P25774).
T3 construct: purchased Calbiochem 219343; host or cells: E. coli
Description: Cathepsin S kinetic fluorescence enzyme inhibition assay. The following applies: selectivity ratio versus calpain I. A digest of the protocol: as §1

Assay [4] concerns the target T4, calpain-I isolated from human erythrocytes (Homo sapiens, UniProt P07384).
T4 construct: calpain-I—isolated from human erythrocytes; purchased Calbiochem 208713; host or cells: human erythrocytes (tissue isolate)
T4 sequence (P07384 1-714): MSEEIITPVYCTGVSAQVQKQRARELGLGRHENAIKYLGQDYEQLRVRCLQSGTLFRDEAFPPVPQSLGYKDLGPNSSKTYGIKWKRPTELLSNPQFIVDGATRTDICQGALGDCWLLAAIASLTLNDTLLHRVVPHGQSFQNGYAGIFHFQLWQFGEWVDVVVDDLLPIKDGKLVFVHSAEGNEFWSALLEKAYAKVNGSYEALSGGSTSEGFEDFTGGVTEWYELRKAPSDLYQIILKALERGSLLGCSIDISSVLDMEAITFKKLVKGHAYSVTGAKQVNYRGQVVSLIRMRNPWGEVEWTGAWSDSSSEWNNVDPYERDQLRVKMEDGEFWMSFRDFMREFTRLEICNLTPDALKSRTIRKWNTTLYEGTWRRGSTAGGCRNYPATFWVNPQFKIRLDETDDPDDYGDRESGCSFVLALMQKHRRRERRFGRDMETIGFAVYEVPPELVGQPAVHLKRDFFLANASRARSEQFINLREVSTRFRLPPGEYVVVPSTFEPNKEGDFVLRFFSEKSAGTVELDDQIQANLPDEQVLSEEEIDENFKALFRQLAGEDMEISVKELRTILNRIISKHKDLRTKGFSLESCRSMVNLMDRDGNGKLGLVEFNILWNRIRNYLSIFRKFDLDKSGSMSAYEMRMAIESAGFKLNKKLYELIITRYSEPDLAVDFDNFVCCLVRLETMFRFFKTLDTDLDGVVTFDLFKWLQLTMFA
T4 sequence (P04632 1-268 partner): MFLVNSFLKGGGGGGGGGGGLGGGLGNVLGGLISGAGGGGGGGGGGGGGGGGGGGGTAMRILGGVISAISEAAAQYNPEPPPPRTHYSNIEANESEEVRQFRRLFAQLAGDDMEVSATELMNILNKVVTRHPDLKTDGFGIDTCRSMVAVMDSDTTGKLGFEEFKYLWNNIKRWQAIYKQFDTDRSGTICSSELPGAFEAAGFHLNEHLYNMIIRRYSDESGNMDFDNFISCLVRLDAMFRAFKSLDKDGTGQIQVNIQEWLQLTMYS
The experiment in a line: Calpain I kinetic fluorescence enzyme inhibition assay. The following applies: apparent Ki from IC50 by Cheng-Prussoff; average of 2 to 4 dose-effect plots.

Assay [5] deals with T5, cathepsin K activated from recombinant human procathepsin K (Homo sapiens, UniProt P43235).
T5 construct: purchased Calbiochem 342001; host or cells: E. coli
T5 sequence (P43235 115-329): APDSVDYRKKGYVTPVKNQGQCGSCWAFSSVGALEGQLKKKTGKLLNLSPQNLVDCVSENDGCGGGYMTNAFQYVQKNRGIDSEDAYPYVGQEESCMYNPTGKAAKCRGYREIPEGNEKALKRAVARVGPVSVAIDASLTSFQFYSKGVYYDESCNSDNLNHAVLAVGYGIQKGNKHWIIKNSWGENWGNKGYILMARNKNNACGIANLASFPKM
The experiment in a line: Cathepsin K kinetic fluorescence enzyme inhibition assay. The following applies: selectivity ratio versus calpain I.

T2 sequence (P07711 114-333): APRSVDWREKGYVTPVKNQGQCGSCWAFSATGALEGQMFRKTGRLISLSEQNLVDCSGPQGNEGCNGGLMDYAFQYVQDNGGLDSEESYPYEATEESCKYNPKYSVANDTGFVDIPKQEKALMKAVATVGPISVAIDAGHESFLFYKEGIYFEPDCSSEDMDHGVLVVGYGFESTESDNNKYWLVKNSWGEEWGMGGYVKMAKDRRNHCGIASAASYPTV
T3 sequence (P25774 115-331): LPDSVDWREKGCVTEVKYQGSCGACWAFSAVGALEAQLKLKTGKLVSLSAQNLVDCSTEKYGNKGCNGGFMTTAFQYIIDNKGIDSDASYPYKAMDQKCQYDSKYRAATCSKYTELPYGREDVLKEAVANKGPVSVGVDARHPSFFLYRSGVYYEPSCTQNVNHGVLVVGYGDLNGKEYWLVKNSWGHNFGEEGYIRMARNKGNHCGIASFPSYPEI

With `NC(=O)C(=O)C(Cc1ccc(Cl)cc1)NC(=O)c1cccnc1-n1ccc(-c2ccccc2)n1` (centres unmarked) [Example 50, N-[3-Amino-1-(4-chlorobenzyl)-2,3-dioxopropyl]-2-(3-phenyl-1H-pyrazol-1-yl)nicotinamide], in assay [1], the “Sel cat. B (Ki(cathepsin B)/Ki(calpain) ratio)” value is on record as “+ (10≦Ki(cathepsin B)/Ki(calpain)<30)”. The “Sel cat. L (Ki(cathepsin L)/Ki(calpain) ratio)” value in assay [2] is “+ (30≦Ki(cathepsin L)/Ki(calpain)<50)”. In addition, in assay [3], the “Sel cat. S (Ki(cathepsin S)/Ki(calpain) ratio)” value is recorded as “+ (50≦Ki(cathepsin S)/Ki(calpain)<100)”. Further, the Ki in assay [4] lay in the range of 40 to 100 nM. Moreover, in assay [5], the “Sel cat. K (Ki(cathepsin K)/Ki(calpain) ratio)” value is “+ (10≦Ki(cathepsin K)/Ki(calpain)<30)”.

For `Cc1ccccc1-c1ccn(-c2ncccc2C(=O)NC(Cc2ccccc2)C(=O)C(N)=O)n1` (centres unmarked) [Example 93, N-[3-Amino-2,3-dioxo-1-(phenylmethyl)propyl]-2-[3-(2-methylphenyl)-1H-pyrazol-1-yl]pyridine-3-carboxamide], the “Sel cat. B (Ki(cathepsin B)/Ki(calpain) ratio)” value in assay [1] is recorded as “++ (Ki(cathepsin B)/Ki(calpain) ratio of ≧30)”. In addition, in assay [2], the “Sel cat. L (Ki(cathepsin L)/Ki(calpain) ratio)” value is recorded as “++ (Ki(cathepsin L)/Ki(calpain) ratio of ≧50)”. The “Sel cat. S (Ki(cathepsin S)/Ki(calpain) ratio)” value in assay [3] was “++ (Ki(cathepsin S)/Ki(calpain) ratio of ≧100)”. Moreover, the Ki in assay [4] is not above 40 nM. In assay [5], the “Sel cat. K (Ki(cathepsin K)/Ki(calpain) ratio)” value was “+ (10≦Ki(cathepsin K)/Ki(calpain)<30)”.

Turning to `CS(=O)(=O)Nc1cnc(-n2ccc(-c3ccccc3)n2)c(C(=O)NC(Cc2ccccc2)C(=O)C(N)=O)c1` (centres unmarked) [Example 158, N-[3-Amino-2,3-dioxo-1-(phenylmethyl)propyl]-5-[(methylsulfonyl)amino]-2-(3-phenyl-1H-pyrazol-1-yl)pyridine-3-carboxamide], the “Sel cat. B (Ki(cathepsin B)/Ki(calpain) ratio)” value in assay [1] is “++ (Ki(cathepsin B)/Ki(calpain) ratio of ≧30)”. For the same compound, the “Sel cat. L (Ki(cathepsin L)/Ki(calpain) ratio)” value in assay [2] is “++ (Ki(cathepsin L)/Ki(calpain) ratio of ≧50)”. Also, the “Sel cat. S (Ki(cathepsin S)/Ki(calpain) ratio)” value in assay [3] is “++ (Ki(cathepsin S)/Ki(calpain) ratio of ≧100)”. The Ki in assay [4] is 40 to 100 nM. For the same compound, in assay [5], the “Sel cat. K (Ki(cathepsin K)/Ki(calpain) ratio)” value is reported as “++ (Ki(cathepsin K)/Ki(calpain) ratio of ≧30)”.

As for `COc1ccc(CC(NC(=O)c2cccnc2-n2ccc(-c3ccc(F)cc3Cl)n2)C(=O)C(N)=O)cc1` (centres unmarked) [Example 111, N-(3-Amino-1-{[4-(methyloxy)phenyl]methyl}-2,3-dioxopropyl)-2-[3-(2-chloro-4-fluorophenyl)-1H-pyrazol-1-yl]pyridine-3-carboxamide], the “Sel cat. B (Ki(cathepsin B)/Ki(calpain) ratio)” value in assay [1] is recorded as “++ (Ki(cathepsin B)/Ki(calpain) ratio of ≧30)”. Also, the “Sel cat. L (Ki(cathepsin L)/Ki(calpain) ratio)” value in assay [2] is “++ (Ki(cathepsin L)/Ki(calpain) ratio of ≧50)”. In assay [3], the “Sel cat. S (Ki(cathepsin S)/Ki(calpain) ratio)” value is listed as “++ (Ki(cathepsin S)/Ki(calpain) ratio of ≧100)”. The Ki in assay [4] is not above 40 nM. Besides, the “Sel cat. K (Ki(cathepsin K)/Ki(calpain) ratio)” value in assay [5] is recorded as “++ (Ki(cathepsin K)/Ki(calpain) ratio of ≧30)”.

On to `NC(=O)C(=O)C(Cc1ccccc1)NC(=O)c1cccnc1-n1ccc(-c2ccc(F)cc2)n1` (centres unmarked) [Example 38, N-(3-Amino-1-benzyl-2,3-dioxopropyl)-2-[3-(4-fluorophenyl)-1H-pyrazol-1-yl]nicotinamide], for which the “Sel cat. B (Ki(cathepsin B)/Ki(calpain) ratio)” value in assay [1] was “+ (10≦Ki(cathepsin B)/Ki(calpain)<30)”. In addition, the “Sel cat. L (Ki(cathepsin L)/Ki(calpain) ratio)” value in assay [2] is reported as “++ (Ki(cathepsin L)/Ki(calpain) ratio of ≧50)”. The “Sel cat. S (Ki(cathepsin S)/Ki(calpain) ratio)” value in assay [3] is given as “++ (Ki(cathepsin S)/Ki(calpain) ratio of ≧100)”. Besides, the Ki in assay [4] fell in the range of 40 to 100 nM. In addition, in assay [5], the “Sel cat. K (Ki(cathepsin K)/Ki(calpain) ratio)” value is reported as “+ (10≦Ki(cathepsin K)/Ki(calpain)<30)”.

`NC(=O)C(=O)C(Cc1ccccc1)NC(=O)c1cccnc1-n1ccc(-c2cccc3ccccc23)n1` (centres unmarked) [Example 110, N-[3-Amino-2,3-dioxo-1-(phenylmethyl)propyl]-2-(3-naphthalen-1-yl-1H-pyrazol-1-yl)pyridine-3-carboxamide]: the “Sel cat. B (Ki(cathepsin B)/Ki(calpain) ratio)” value in assay [1] is given as “++ (Ki(cathepsin B)/Ki(calpain) ratio of ≧30)”. Further, in assay [2], the “Sel cat. L (Ki(cathepsin L)/Ki(calpain) ratio)” value was “++ (Ki(cathepsin L)/Ki(calpain) ratio of ≧50)”. Also, the “Sel cat. S (Ki(cathepsin S)/Ki(calpain) ratio)” value in assay [3] is “++ (Ki(cathepsin S)/Ki(calpain) ratio of ≧100)”. Moreover, the Ki in assay [4] is not above 40 nM. In assay [5], the “Sel cat. K (Ki(cathepsin K)/Ki(calpain) ratio)” value is recorded as “++ (Ki(cathepsin K)/Ki(calpain) ratio of ≧30)”.

With `NC(=O)C(=O)C(Cc1ccccc1)NC(=O)c1cccnc1-n1ccc(-c2c(F)ccc(Cl)c2Cl)n1` (centres unmarked) [Example 120, N-[3-Amino-2,3-dioxo-1-(phenylmethyl)propyl]-2-[3-(2,3-dichloro-6-fluorophenyl)-1H-pyrazol-1-yl]pyridine-3-carboxamide], in assay [1], the “Sel cat. B (Ki(cathepsin B)/Ki(calpain) ratio)” value was “++ (Ki(cathepsin B)/Ki(calpain) ratio of ≧30)”. For the same compound, the “Sel cat. L (Ki(cathepsin L)/Ki(calpain) ratio)” value in assay [2] is reported as “+ (30≦Ki(cathepsin L)/Ki(calpain)<50)”. Also, in assay [3], the “Sel cat. S (Ki(cathepsin S)/Ki(calpain) ratio)” value is given as “++ (Ki(cathepsin S)/Ki(calpain) ratio of ≧100)”. In addition, in assay [4], the Ki is not above 40 nM. The “Sel cat. K (Ki(cathepsin K)/Ki(calpain) ratio)” value in assay [5] is listed as “++ (Ki(cathepsin K)/Ki(calpain) ratio of ≧30)”.

On to `COc1ccc2c(c1)OCc1cn(-c3ncccc3C(=O)NC(Cc3ccccc3)C(=O)C(N)=O)nc1-2` (centres unmarked) [Example 142, N-[3-Amino-2,3-dioxo-1-(phenylmethyl)propyl]-2-[7-(methyloxy)chromeno[4,3-c]pyrazol-2(4H)-yl]pyridine-3-carboxamide], for which, in assay [1], the “Sel cat. B (Ki(cathepsin B)/Ki(calpain) ratio)” value is “+ (10≦Ki(cathepsin B)/Ki(calpain)<30)”. The “Sel cat. L (Ki(cathepsin L)/Ki(calpain) ratio)” value in assay [2] is “++ (Ki(cathepsin L)/Ki(calpain) ratio of ≧50)”. For the same compound, the “Sel cat. S (Ki(cathepsin S)/Ki(calpain) ratio)” value in assay [3] is on record as “++ (Ki(cathepsin S)/Ki(calpain) ratio of ≧100)”. In addition, in assay [4], the Ki is not above 40 nM. For the same compound, the “Sel cat. K (Ki(cathepsin K)/Ki(calpain) ratio)” value in assay [5] is listed as “+ (10≦Ki(cathepsin K)/Ki(calpain)<30)”.

In the case of `NC(=O)C(=O)C(Cc1ccccc1)NC(=O)c1cccnc1-n1ccc(-c2cc(Cl)ccc2Cl)n1` (centres unmarked) [Example 112, N-[3-Amino-2,3-dioxo-1-(phenylmethyl)propyl]-2-[3-(2,5-dichlorophenyl)-1H-pyrazol-1-yl]pyridine-3-carboxamide], in assay [1], the “Sel cat. B (Ki(cathepsin B)/Ki(calpain) ratio)” value was “++ (Ki(cathepsin B)/Ki(calpain) ratio of ≧30)”. Besides, the “Sel cat. L (Ki(cathepsin L)/Ki(calpain) ratio)” value in assay [2] is on record as “++ (Ki(cathepsin L)/Ki(calpain) ratio of ≧50)”. In addition, in assay [3], the “Sel cat. S (Ki(cathepsin S)/Ki(calpain) ratio)” value is given as “++ (Ki(cathepsin S)/Ki(calpain) ratio of ≧100)”. In assay [4], the Ki was not above 40 nM. Besides, in assay [5], the “Sel cat. K (Ki(cathepsin K)/Ki(calpain) ratio)” value is “++ (Ki(cathepsin K)/Ki(calpain) ratio of ≧30)”.

On to `NC(=O)C(=O)C(Cc1ccccc1)NC(=O)c1cccnc1-n1ccc(-c2ccccc2C(F)(F)F)n1` (centres unmarked) [Example 72, N-(3-Amino-1-benzyl-2,3-dioxopropyl)-2-{3-[2-(trifluoromethyl)phenyl]-1H-pyrazol-1-yl}nicotinamide], for which, in assay [1], the “Sel cat. B (Ki(cathepsin B)/Ki(calpain) ratio)” value was “+ (10≦Ki(cathepsin B)/Ki(calpain)<30)”. Moreover, the “Sel cat. L (Ki(cathepsin L)/Ki(calpain) ratio)” value in assay [2] was “+ (30≦Ki(cathepsin L)/Ki(calpain)<50)”. The “Sel cat. S (Ki(cathepsin S)/Ki(calpain) ratio)” value in assay [3] was “++ (Ki(cathepsin S)/Ki(calpain) ratio of ≧100)”. In addition, in assay [4], the Ki fell in the range of 40 to 100 nM. Further, the “Sel cat. K (Ki(cathepsin K)/Ki(calpain) ratio)” value in assay [5] was “+ (10≦Ki(cathepsin K)/Ki(calpain)<30)”.
